Data taken from US7868011B2 (General Atomics, priority 2003, dated 2011).

Legend:
SAH hydrolase = SAH hydrolase (Rattus norvegicus, UniProt P10760); conditions: cited from earlier work
[1] = biological target: intracellular AdoHcy hydrolase (Rattus norvegicus, UniProt P10760); conditions: intracellular enzyme; cited from earlier work
[2] = tested on: C57BL/6 spleen cells stimulated by mitomycin-treated Balb/c spleen cells; experiment: Mixed lymphocyte reaction (MLR) proliferation assay; type: cell-based, mouse; conditions: 3-day culture
Method: Balb/c mouse spleen cells were prepared in 10^7 cells/ml suspension, cultured 2 h with 50 μg/ml of mitomycin. Then cells were washed and cultured together with fresh C57/B6 mice splenocytes equally in a final concentration of 1.0×10^6 cells/ml in the presence or absence of various concentrations of DZ2002. After 48 hour incubation, cells were pulsed with 0.5 μCi/well of [^3H]-thymidine and cultured for another 24 hours. The cells were then harvested onto glass fiber filters and the incorporated radioactivity was counted using a Beta Scintillator (MicroBeta Trilux, PerkinElmer Life Sciences).

[3] = tested on: TG induced peritoneal macrophages; experiment: cytokine production from TG induced peritoneal macrophages (ELISA); type: cell-based, BALB/C mice; conditions: IFN-γ and LPS 24 h, 0.1-10 μmol/L
Method: Peritoneal exudate cells were induced in BALB/C mice by an intraperitoneal injection of 0.5 ml of 3% TG. After 4 days, the peritoneal exudates cells were harvested by sterile lavage.
Murine peritoneal exudate cells (6.25×10^5) were cultured in 24-well plates in a volume of 1 ml/well for 2 hours. In adherent cells were washed by ice cold RPMI 1640 and adherent cells were culture in a volume of 2 ml/well in the presence of IFN-γ (2.5 ng/ml) and LPS (1 μg/ml) in the presence or absence of various concentrations of DZ2002. After 24 h, cell-free supernatant was collected and frozen at −20° C. The concentrations of IL-12p40, IL-12p70, IL-10 and TNF-α were determined by ELISA.
Cytokines produced by peritoneal macrophages were assessed following a 24-h incubation with IFN-γ at 25 U/ml and LPS at 1 μg/ml. Resident peritoneal cells produce low levers of cytokines except for some IL-10 with incubated with IFN-γ and LPS (data not shown). As for TG induced peritoneal macrophages, DZ2002 inhibited IL-12P40 and TNF-α release, but have no effect on IL-10 production in the dose of 0.1-10 μmol/L (FIG. 5).

[4] = tested on: lupus-prone MRL-Fas^lpr mice; experiment: survival of lupus-prone MRL-Fas lpr mice; type: in vivo, mouse; conditions: 50 mg/kg/day i.p.
Method: MRL-Fas^lpr female mice were provided by The Jackson Laboratory (Bar Harbor, Me.). The mice were housed in specific pathogen-free (SPF) conditions with room temperature of 24±2° C., 12 hr light/dark cycle, and provided with sterile food and water ad libitum. Starting at approximately 6 weeks of age, MRL-Fas^lpr mice (n=11-13/group) were dosed i.p. every day with either DZ2002 (50 mg/kg/day) or with vehicle (0.4% DMSO/PBS) for ˜9 months and followed for survival. Mouse survival data were analyzed by the Kaplan-Meir method with comparison by the log-rank test; p<0.05 was considered to be significant.

[5] = tested on: Mouse splenic lymphocytes; experiment: MTT cytotoxicity assay of the splenic lymphocytes; type: cell-based; conditions: 0.1-10 μmol/L, two days of culture
Method: Cytotoxicity was assessed with MTT assay. Mouse splenic lymphocytes were incubated in a 96-well plate at 9×10^4 cells/180 μl/well in a humidified CO2 incubator at 37° C. for 48 hours in the presence or absence of various concentrations of DZ2002. Fifteen (15) μl of 5 mg/ml of MTT was pulsed 4 h prior to end of the culture […], and then 80 μl solvent (10% SDS, 50% N,N-dimethy formamide, PH7.2) was added. Incubate for 7 h and read OD590 at a microplate reader (Bio-rad Model 550 Japan).

[6] = tested on: primary antibody production in response to SRBC; experiment: Quantitative hemolysis of sheep red blood cells (QHS) assay; type: in vivo, Balb/c mice; conditions: 7-day intraperitoneal injection
Method: Female Babl/c mice were immunized by intraperitoneal injection with 0.2 ml of 16.7% of SRBC on day 4. Vehicle, Dexamethasone and DZ2002 were administrated on each group (n=6) by intraperitoneal injection on 7 consecutive days of 1-7. On day 8, mice were sacrificed and made a mixed suspension of spleen cells of 2×10^6 cells/ml. 1 ml of cell suspension was incubated with 1 ml of 0.5% SRBC and 1 ml of 1:10 dilution of guinea pig complement for 1 h at 37° C., then centrifuged (3 min, 3000 g) and determined the supernatant hemolysis at 413 nm, according to Simpson et al., J. Immunol. Methods., 21(1-2):159-65. (1978) with some modifications. Each group was triplicated.

SAH hydrolase, sequence (P10760 whole entry): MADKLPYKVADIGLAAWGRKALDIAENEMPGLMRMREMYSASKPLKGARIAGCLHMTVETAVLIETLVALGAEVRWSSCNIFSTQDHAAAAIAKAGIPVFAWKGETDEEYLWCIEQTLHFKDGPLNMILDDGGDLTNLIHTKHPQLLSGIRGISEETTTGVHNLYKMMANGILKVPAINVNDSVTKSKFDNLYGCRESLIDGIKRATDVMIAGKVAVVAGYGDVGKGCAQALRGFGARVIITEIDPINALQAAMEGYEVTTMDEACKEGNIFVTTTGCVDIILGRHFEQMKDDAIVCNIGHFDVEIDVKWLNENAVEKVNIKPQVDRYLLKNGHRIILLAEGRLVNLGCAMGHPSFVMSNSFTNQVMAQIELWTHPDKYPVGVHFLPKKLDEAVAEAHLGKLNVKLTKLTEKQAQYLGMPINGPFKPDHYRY
intracellular AdoHcy hydrolase, sequence (P10760 whole entry): as above

Nc1ncnc2c1ncn2C[C@H](O)CO [(S)-DHPA, (S)-9-(2,3-dihydroxypropyl)adenine]
type of inhibition of isolated AdoHcy hydrolase (SAH hydrolase; isolated enzyme): reversible inhibitor
Ki (SAH hydrolase; read-out: Ki value against SAH hydrolase): 3.5 µM
type of inhibition of intracellular AdoHcy hydrolase [1]: irreversible inhibitor

COC(=O)C(O)CCn1cnc2c(N)ncnc21 (stereo not drawn) [DZ2002, Methyl 4-(Adenin-9-yl)-2-hydroxybutanoate]
suppression of MLR ([2]; 0.1 μmol/L): 40.2%
suppression of MLR ([2]; 1 μmol/L): 36.9%
suppression of MLR ([2]; 10 μmol/L): 42.3%
IL-10 production [3]: no effect
age at which extension in survival was first observed [4]: approximately 160 days of age
cytotoxicity to spleen cells (MTT, OD) [5]: no cytotoxicity
inhibition of QHS ([6]; 0.08 mg/kg): 24.5%
inhibition of QHS ([6]; 2 mg/kg): 18.4%

C[C@@H]1C[C@H]2[C@@H]3CCC4=CC(=O)C=C[C@]4(C)[C@@]3(F)[C@@H](O)C[C@]2(C)[C@@]1(O)C(=O)CO [Dethamethasone, reference compound]
inhibition of QHS ([6]; 5 mg/kg): 38.1%
